Data as given in patent US8987309B2, “Compounds, pharmaceutical compositions and methods of use of 2-aryl pyridylazoles” (The Translational Genomics Research Institute, priority 2009, dated 2015).
Entries after “also recorded” stand apart in the source; their conditions may differ.

Key:
SK-OV-3 = assay: IC50 in tumor cell lines (SK-OV-3); type: cell-based; conditions: Table 2; ovarian tumor cell line SK-OV-3
Procedure: (§1) Cytotoxicity Assays. Cytotoxicity assays in the mechanism of action studies were performed according to Mosmann (1983), wherein the activity of mitochondrial reductases were measured using 3-(4,5-dimethylthiozol-3-yl)-2,5-diphenyltetrozolium bromide dye. In brief, cells were seeded in 96-well plates and incubated for various times at 37° C. Inhibition of cell growth was measured by adding 3-(4,5-dimethylthiozol-3-yl)-2,5-diphenyltetrozolium bromide dye, and after an additional 4 h of incubation at 37° C., the 96-well plates were centrifuged, and the culture supernatant was removed. DMSO was added to each well to solubilize the formazan crystals, and the optical density was read at 540 nm on a Quant Spectrophotometer (BioTek Instruments, Winooski, Vt.). Cell growth inhibition data are expressed as percentage of survival compared with untreated cells. The IC50 is defined as the drug concentration required to produce 50% growth inhibition. Results are mean S.E.M. (n 3).

Caki-1 = assay: IC50 in tumor cell lines (Caki-1); type: cell-based; conditions: Table 2; kidney tumor cell line Caki-1
Procedure: as §1

MCF7 = assay: IC50 in tumor cell lines (MCF7); type: cell-based; conditions: Table 2; breast tumor cell line MCF7
Procedure: as §1

[1] = test system: BxPC3 DPC-4(+/+) and BxPC3 DPC-4(−/−) cells; assay: Cytotoxicity (96-h MTT) in isogenic BxPC3 cell lines; type: cell-based, Human; conditions: BxPC3 cell lines
Procedure: Cell lines and Culture Conditions. Human pancreatic cancer cell lines MiaPaCa-2 (Yunis et al., 1977), Panc-1 (Lieber et al., 1975), and BxPC3 (Tan et al., 1986) were purchased from the American Type Culture Collection (Manassas, Va.) and cultured in a humidified incubator at 37° C., 5% CO2, in RPMI 1640 medium (CellGro, Manassas, Va.) supplemented with 10% heat-inactivated bovine calf serum, 2 mM L-glutamine, 100 U/ml penicillin, and 100 µg/ml streptomycin (Invitrogen, Carlsbad, Calif.). MiaPaCa-2 (CRL-1420) is an adherent epithelial human pancreatic cancer cell line with a doubling time of approximately 40 h (Yunis et al., 1977). Panc-1 (CRL-1469) is an undifferentiated human pancreatic epithelial cell line with a doubling time of approximately 52 h (Lieber et al., 1975). The BxPC3 cell line DPC-4(−/−) and its isogenic restored wild-type DPC-4(+/+) cell line were developed and cultured as described previously (Wang et al., 2006). In brief, a DPC-4-expressing construct (pMSCVneoDPC-4) was created by amplifying full-length cDNA of DPC-4 using reverse transcriptase-PCR and subcloning into the multiple cloning site of a retroviral vector (pMSCVneo). The DPC-4-expressing construct was cotransfected into the BxPC3 DPC-4(−/−) cells using a packaging cell line, resulting in a cell line that constitutively expresses DPC-4. The expression of DPC-4 was confirmed by Western blotting (Wang et al., 2006).
as §1
(§2) Mean±S.E.M., n=3. […] Mean±S.E.M., n=3. […] Mean tumor burden is shown.

BxPC3 DPC-4(−/−) cells = assay: Measurement of cell cycle (PI flow cytometry); type: cell-based, Human; conditions: 24 to 72 h
Procedure: Measurement of Cell Cycle. The percentage of cells in different cell cycle phases of division was measured by flow cytometry (Darzynkiewicz et al., 1996) using propidium iodide (PI) (Sigma-Aldrich). In brief, cells were treated with PC-046 for 24 to 72 h, fixed with 70% ethanol overnight, and then stained with 40 µg/ml PI and 0.5 mg/ml RNase A for 30 min at 37° C. PI fluorescence was measured on a FACScan (BD Biosciences, San Jose, Calif.) and analyzed using Mod-Fit (Verify Software, Topsham, Me.). Data are mean S.E.M. (n 3).
as §2

[2] = test system: synthesis of DNA, RNA, or protein; assay: Measurement of macromolecular synthesis (radiolabeled precursors); type: cell-based
Procedure: Measurement of Macromolecular Synthesis. Radiolabeled precursors of DNA ([^3H]thymidine) and protein ([^14C]valine) were obtained from GE Healthcare (Piscataway, N.J.). The RNA precursor [^3H]uridine was obtained from MP Biomedical (Irvine, Calif.). In brief, cells were plated in 96-well plates and allowed to adhere before adding DPC-046 for 24 to 72 h. Radiolabeled precursors ([…] for thymidine and uridine, and 0.05 µCi/well for valine) were added and allowed to incorporate for 6 h at 37° C. Cells were harvested onto Unifilter-96 GF/B filterplates using a Packard Filtermate 96-well harvester and counted using a Packard Top Count NXT 96-well scintillation counter (PerkinElmer Life and Analytical Sciences, Boston, Mass.).

[3] = Pharmacokinetic study, single intravenous dose; type: in vivo, SCID mice; conditions: single intravenous 88 mg/kg
Procedure: Pharmacokinetic Studies. The pharmacokinetics of DPC-046 in nontumor bearing SCID mice was determined after intravenous administration of a single dose of 88 mg/kg. Plasma samples were collected at 0, 1, 5, 15, 30, 60, 90, 120, 240, 480, 960, and 1440 min after dosing. Plasma DPC-046 concentrations were analyzed by reversed-phase chromatography and tandem mass spectrometry. In brief, mouse plasma was mixed with 99 volumes of acetonitrile, and an aliquot of the supernatant was injected onto the LC-MS. The LC-MS analysis was performed on a ThermoFinnigan Quantum Ultra triple quadrupole mass spectrometer (Thermo Fisher Scientific, Waltham, Mass.) in tandem with a Surveyor LC system. […] Data are mean±S.E.M. (n=3).

TrkB = TrkB (Homo sapiens, UniProt Q16620); assay: Follow-up kinase screening and IC50 (SignalChem), TrkB; type: biochemical; parameters: assay run by SignalChem Pharmaceuticals, Inc. (Richmond, BC, Canada)
Chain of TrkB (Q16620 32-822): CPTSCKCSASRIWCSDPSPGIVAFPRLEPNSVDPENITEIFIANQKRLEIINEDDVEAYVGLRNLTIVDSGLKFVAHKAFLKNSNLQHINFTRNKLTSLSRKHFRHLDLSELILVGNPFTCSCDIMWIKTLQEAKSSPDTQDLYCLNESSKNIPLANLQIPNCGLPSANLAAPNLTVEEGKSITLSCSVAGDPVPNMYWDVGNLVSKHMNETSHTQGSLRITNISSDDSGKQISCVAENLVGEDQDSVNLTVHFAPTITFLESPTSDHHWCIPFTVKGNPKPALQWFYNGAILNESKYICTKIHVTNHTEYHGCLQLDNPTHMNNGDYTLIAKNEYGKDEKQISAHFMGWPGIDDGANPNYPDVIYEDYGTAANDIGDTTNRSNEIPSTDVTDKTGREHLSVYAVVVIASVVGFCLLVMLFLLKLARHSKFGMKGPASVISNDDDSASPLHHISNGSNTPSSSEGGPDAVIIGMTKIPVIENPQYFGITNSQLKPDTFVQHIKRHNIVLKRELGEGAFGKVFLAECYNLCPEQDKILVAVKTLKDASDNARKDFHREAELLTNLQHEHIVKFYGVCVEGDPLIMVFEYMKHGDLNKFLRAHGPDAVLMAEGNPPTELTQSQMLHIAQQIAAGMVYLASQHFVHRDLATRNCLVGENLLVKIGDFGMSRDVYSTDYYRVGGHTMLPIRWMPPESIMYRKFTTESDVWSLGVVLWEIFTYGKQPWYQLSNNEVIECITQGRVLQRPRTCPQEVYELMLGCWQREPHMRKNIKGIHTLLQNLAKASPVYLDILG

SMILES: COc1ccc(-c2cnc(-c3ccncc3-c3cccc(OC)c3)o2)cc1 [DPC046]
- IC50 (SK-OV-3): 17 nM
- IC50 (Caki-1): 13 nM
- IC50 (MCF7): 11 nM
- potency against BxPC3 cell lines (in words) ([1]; listed as DPC-046): most potent; also recorded: greatest cytotoxicity
- potency against BxPC3 cell lines (in words) ([1]; listed as PC-046): high potency
- effect on cell cycle phases (in words) (BxPC3 DPC-4(−/−) cells; listed as (D)PC-046): block in the S and G2/M-phases
- effect on cell cycle phases (in words) (BxPC3 DPC-4(−/−) cells; listed as DPC-046): reduction in the percentage of G0/G1-phase cells and a commensurate increase in G2/M-phase cells
- selectivity of inhibition of DNA, RNA or protein synthesis (in words) ([2]; 24 to 72 h): no selective inhibition
- IC50 ([2]; DNA, RNA, protein, average, at 72 h, read-out: IC50 for inhibition of synthesis of each macromolecule): ~3000 nM
- apparent volume of distribution ([3]; mice): 135.2 L/kg
- clearance ([3]; mice): 248 mL/min/kg
- mean (S.D.) plasma concentration at last sampling time ([3]; mice, 24 h): 0.226 (0.104) μM
- mean (S.D.) peak plasma concentration ([3]; mice, first sampling time (1 min)): 10.8 (4.26) μM
- monoexponential half-life ([3]; mouse plasma): 7.5 h
- inhibition of TrkB (TrkB; 25 μM DPC-046, follow-up screen): more than 70%
- inhibition of TrkB (TrkB; highest concentration tested (50 μM)): 98%
